# Measurements: patent publication US20260234115A1, “LIPID COMPOUNDS, COMPOSITIONS, AND USES THEREOF” (Liberate Bio, Inc., priority 2023, published 2026)
# Marks after values point to notes of the source that are not given here.
# Test system: mouse organs
# Experiment: In vivo activity screening in mice: organ mean total flux (p/s) of luciferase activity after injection of F2 LNP pools (Table 6, FIG. 7A-7C)
# Conditions: Mouse 3, dose 1.0 mg/kg, luciferase mRNA
# Method in brief: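 C57BL/6J mice given one tail-vein injection of pooled Formulation F2 LNPs carrying firefly luciferase mRNA (0.25-3 mg/kg) in PBS. At 4-6 h, s.c. D-luciferin given; organs imaged ex vivo by IVIS within 10-15 min, after saline cardiac perfusion. Mean total flux (p/s) per organ ROI.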
Compound,Organ Mean Total Flux Femur,Organ Mean Total Flux Heart,Organ Mean Total Flux Kidney,Organ Mean Total Flux Liver,Organ Mean Total Flux Lung,Organ Mean Total Flux Muscle,Organ Mean Total Flux Pancreas,Organ Mean Total Flux Spleen
"CCCCCCCCCOC(=O)CCCCC(=O)OCC(COC(=O)CCCCC(=O)OCCCCCCCCC)(COC(=O)CCCCC(=O)OCCCCCCCCC)COC(=O)CCC(CCCCCC)OC(=O)NCCN1CCCC1 (stereo not shown) [Compound 50, O6-[2,2-bis[(6-nonoxy-6-oxo-hexanoyl)oxymethyl]-3-[4-(2-pyrrolidin-1-ylethylcarbamoyloxy)decanoyloxy]propyl]O1-nonyl hexanedioate]",3.8 p/s (×10^6),3.1 p/s (×10^6),2.1 p/s (×10^6),2413 p/s (×10^6),12.1 p/s (×10^6),3.8 p/s (×10^6),8.8 p/s (×10^6),9.0 p/s (×10^6)
"CCCCCCC(CCCC)COC(=O)CCCCCC(=O)OCC(COC(=O)CCCCCC(=O)OCC(CCCC)CCCCCC)(COC(=O)CCCCCC(=O)OCC(CCCC)CCCCCC)COC(=O)CCC(CCCCCC)OC(=O)NCCN1CCCC1 (stereo not shown) [Compound 51, O7-[2,2-bis[[7-(2-butyloctoxy)-7-oxo-heptanoyl]oxymethyl]-3-[4-(2-pyrrolidin-1ylethylcarbamoyloxy)decanoyloxy]propyl]O1-(2-butyloctyl) heptanedioate]",7.5 p/s (×10^6),16.0 p/s (×10^6),7.2 p/s (×10^6),15467 p/s (×10^6),59.6 p/s (×10^6),16.5 p/s (×10^6),4.9 p/s (×10^6),9.7 p/s (×10^6)
CCCCCCC(CCC(=O)OCC(COC(=O)CCCCCC(=O)OCCC(CCCCC)CCCCC)(COC(=O)CCCCCC(=O)OCCC(CCCCC)CCCCC)COC(=O)CCCCCC(=O)OCCC(CCCCC)CCCCC)OC(=O)NCCN1CCCC1 (stereo not shown) [Compound 52],6.0 p/s (×10^6),9.0 p/s (×10^6),8.4 p/s (×10^6),12143 p/s (×10^6),56.0 p/s (×10^6),15.1 p/s (×10^6),4.7 p/s (×10^6),6.1 p/s (×10^6)
CCCCCCC(CCC(=O)OCC(COC(=O)CCCCC(=O)OCCC(CCCC)CCCCC)(COC(=O)CCCCC(=O)OCCC(CCCCC)CCCCC)COC(=O)CCCCC(=O)OCCC(CCCCC)CCCCC)OC(=O)NCCN1CCCC1 (stereo not shown) [Compound 53],2.5 p/s (×10^6),2.1 p/s (×10^6),2.2 p/s (×10^6),1286 p/s (×10^6),12.1 p/s (×10^6),5.5 p/s (×10^6),2.3 p/s (×10^6),9.3 p/s (×10^6)
"CCCCCCC(CCC(=O)OCC(COC(=O)CCCC(=O)OCCC(CCCCC)CCCCC)(COC(=O)CCCC(=O)OCCC(CCCCC)CCCCC)COC(=O)CCCC(=O)OCCC(CCCCC)CCCCC)OC(=O)NCCN1CCCC1 (stereo not shown) [Compound 54, O5-[2,2-bis[[5-oxo-5-(3-pentyloctoxy)pentanoyl]oxymethyl]-3-[4-(2-pyrrolidin-1-ylethylcarbamoyloxy)decanoyloxy]propyl]O1-(3-pentyloctyl) pentanedioate]",9.0 p/s (×10^6),19.3 p/s (×10^6),60.3 p/s (×10^6),24850 p/s (×10^6),81.5 p/s (×10^6),19.2 p/s (×10^6),3.6 p/s (×10^6),9.6 p/s (×10^6)
"CCCCCCC(CCC(=O)OCC(COC(=O)CCCCCOC(=O)C(CCCC)CCCCCC)(COC(=O)CCCCCOC(=O)C(CCCC)CCCCCC)COC(=O)CCCCCOC(=O)C(CCCC)CCCCCC)OC(=O)NCCN1CCCC1 (stereo not shown) [Compound 55, [6-[2,2-bis[6-(2-butyloctanoyloxy)hexanoyloxymethyl]-3-[4-(2-pyrrolidin-1ylethylcarbamoyloxy)decanoyloxy]propoxy]-6-oxo-hexyl]2-butyloctanoate]",6.1 p/s (×10^6),4.4 p/s (×10^6),2.4 p/s (×10^6),4527 p/s (×10^6),19.9 p/s (×10^6),17.4 p/s (×10^6),2.6 p/s (×10^6),6.2 p/s (×10^6)
"CCCCCCC(CCC(=O)OCC(COC(=O)CCCCOC(=O)C(CCCC)CCCCCC)(COC(=O)CCCCOC(=O)C(CCCC)CCCCCC)COC(=O)CCCCOC(=O)C(CCCC)CCCCCC)OC(=O)NCCN1CCCC1 (stereo not shown) [Compound 56, [5-[2,2-bis[5-(2-butyloctanoyloxy)pentanoyloxymethyl]-3-[4-(2-pyrrolidin-1-ylethylcarbamoyloxy)decanoyloxy]propoxy]-5-oxo-pentyl]2-butyloctanoate]",6.4 p/s (×10^6),17.7 p/s (×10^6),9.4 p/s (×10^6),15800 p/s (×10^6),66.6 p/s (×10^6),19.7 p/s (×10^6),3.4 p/s (×10^6),13.0 p/s (×10^6)
"CCCCCCC(CCC(=O)OCC(COC(=O)CCCCCCOC(=O)C(CCCC)CCCCCC)(COC(=O)CCCCCCOC(=O)C(CCCC)CCCCCC)COC(=O)CC12CC3CC(CC(C3)C1)C2)OC(=O)NCCN1CCCC1 (stereo not shown) [Compound 57, [7-[2-[[2-(1-adamantyl)acetyl]oxymethyl]-2-[7-(2-butyloctanoyloxy)heptanoyloxymethyl]-3-[4-(2-pyrrolidin-1-ylethylcarbamoyloxy)decanoyloxy]propoxy]-7-oxo-heptyl]2-butyloctanoate]",7.4 p/s (×10^6),16.1 p/s (×10^6),11.4 p/s (×10^6),25033 p/s (×10^6),71.8 p/s (×10^6),16.4 p/s (×10^6),2.7 p/s (×10^6),6.5 p/s (×10^6)
"CCCCCCC(CCC(=O)OCC(COC(=O)CCCCCOC(=O)C(CCCC)CCCCCC)(COC(=O)CCCCCOC(=O)C(CCCC)CCCCCC)COC(=O)CC12CC3CC(CC(C3)C1)C2)OC(=O)NCCN1CCCC1 (stereo not shown) [Compound 58, [6-[2-[[2-(1-adamantyl)acetyl]oxymethyl]-2-[6-(2-butyloctanoyloxy)hexanoyloxymethyl]-3-[4-(2-pyrolidin-1-ylethylcarbamoyloxy)decanoyloxy]propoxy]-6-oxo-hexyl]2-butyloctanoate]",11.5 p/s (×10^6),2.8 p/s (×10^6),2.6 p/s (×10^6),1493 p/s (×10^6),41.0 p/s (×10^6),29.1 p/s (×10^6),9.2 p/s (×10^6),10.5 p/s (×10^6)

# Same assay, conditions: Mouse 13, dose 0.5 mg/kg, luciferase mRNA
Compound,Organ Mean Total Flux Femur,Organ Mean Total Flux Heart,Organ Mean Total Flux Kidney,Organ Mean Total Flux Liver,Organ Mean Total Flux Lung,Organ Mean Total Flux Muscle,Organ Mean Total Flux Pancreas,Organ Mean Total Flux Spleen
"CCCCCCCCCOC(=O)CCCCC(=O)OCC(COC(=O)CCCCC(=O)OCCCCCCCCC)(COC(=O)CCCCC(=O)OCCCCCCCCC)COC(=O)CCC(CCCCCC)OC(=O)NCCN1CCCC1 (stereo not shown) [Compound 50, O6-[2,2-bis[(6-nonoxy-6-oxo-hexanoyl)oxymethyl]-3-[4-(2-pyrrolidin-1-ylethylcarbamoyloxy)decanoyloxy]propyl]O1-nonyl hexanedioate]",1.2 p/s (×10^6),1.0 p/s (×10^6),0.7 p/s (×10^6),569.7 p/s (×10^6),4.7 p/s (×10^6),2.3 p/s (×10^6),1.5 p/s (×10^6),4.7 p/s (×10^6)
"CCCCCCC(CCC(=O)OCC(COC(=O)CCCCOC(=O)C(CCCC)CCCCCC)(COC(=O)CCCCOC(=O)C(CCCC)CCCCCC)COC(=O)CC12CC3CC(CC(C3)C1)C2)OC(=O)NCCN1CCCC1 (stereo not shown) [Compound 59, [5-[2-[[2-(1-adamantyl)acetyl]oxymethyl]-2-[5-(2-butyloctanoyloxy)pentanoyloxymethyl]-3-[4-(2-pyrrolidin-1-ylethylcarbamoyloxy)decanoyloxy]propoxy]-5-oxo-pentyl]2-butyloctanoate]",2.6 p/s (×10^6),2.6 p/s (×10^6),1.5 p/s (×10^6),1967 p/s (×10^6),9.9 p/s (×10^6),4.7 p/s (×10^6),0.7 p/s (×10^6),2.8 p/s (×10^6)
